Reference: patent publication US9839622B2, “Methods of treating hypothalamic obesity” (Zafgen, Inc., priority 2012, dated 2017)

What was measured:
[1] = Treatment of obese humans also taking anti-depressants known to cause hypothalamic obesity; assay type: in vivo, human; conditions: obese humans on anti-depressants, average dose 1.44 mg twice weekly subcutaneous
Description: FIG. 3 depicts percentage reduction in body weight by up to seven weeks of treatment with 6-O-(4-dimethylaminoethoxy)cinnamoyl fumagillol (ZGN-440; average dose of 1.44 mg administered twice weekly by subcutaneous administration, n=5) or placebo (administered twice weekly by subcutaneous administration, n=2) in obese human patients treated otherwise for depression with mirtazapine, sertraline, imipramine, paroxetine, or amitryptyline.
Five of these patients were also administered ZGN-440 (average dose of 1.44 mg, administered twice weekly by subcutaneous administration). On average, patients lost 5.4 percent of their baseline body weight over the seven week treatment. […] At baseline, the average (±SEM) body weight was 100.2±3.2 kg, and the average body mass index was 38.8±1.7 kg/m^2. […] (FIG. 3).

[2] = Mouse model of hypothalamic injury (gold thioglucose); assay type: in vivo, C57/BL6 mice; conditions: 0.1 mg/kg daily subcutaneous
Description: FIG. 1 depicts body weight change (percent) of C57/BL6 mice treated with single dose of 0.5 g/kg gold thioglucose, and after 40 days, started on 0.1 mg/kg daily subcutaneous dose of 6-O-(4-dimethylaminoethoxy)cinnamoyl fumagillol (ZGN-440). FIG. 2 depicts normalized food intake in GTG mice to the level of normal mice that were not treated with gold thioglucose, after 0.1 mg/kg daily subcutaneous dose of 6-O-(4-dimethylaminoethoxy)cinnamoyl fumagillol. Gold thioglucose (GTG) is a chemical treatment used as a model of hypothalamic injury. C57/BL6 mice were treated with single dose of 0.5 g/kg gold thioglucose. After 40 days a cohort was started on 0.1 mg/kg daily subcutaneous dose of 6-O-(4-dimethylaminoethoxy)cinnamoyl fumagillol (ZGN-440). […] (FIG. 1). The food intake level of GTG treated mice was increased to over 3 g/day/mouse, where in GTG mice treated with ZGN-440 the food intake decreased to the level of normal mice that were not treated with gold thioglucose (below 3 g/day). (FIG. 2).

SMILES: CO[C@@H]1[C@H](OC(=O)/C=C/c2ccc(OCCN(C)C)cc2)CC[C@]2(CO2)[C@H]1[C@@]1(C)O[C@@H]1CC=C(C)C [ZGN-440, 6-O-(4-dimethylaminoethoxy)cinnamoyl fumagillol]
- loss of baseline body weight (average) ([1]; n=5, seven week treatment, FIG. 3): 5.4%
- weight loss vs. placebo (percent change of body weight from baseline, Student's t test) ([1]; up to seven weeks, placebo failed to lose weight): statistically significant
- body weight change ([2]; GTG (0.5 g/kg single dose) C57/BL6 mice, started after 40 days, FIG. 1): Significant weight loss
- food intake ([2]; GTG mice, untreated GTG mice over 3 g/day/mouse, FIG. 2): below 3 g/day
